According to patent US8937176B2, “Compounds” (Boehringer Ingelheim International GmbH, priority 2011, dated 2015):

Biological target: T1, human recombinant mGluR5 (Homo sapiens, UniProt P41594)
T1 construct: expressed in transfected cells; host or cells: HEK 293 cell line
Test: Positive modulation of mGluR5, calcium based FLIPR assay in HEK 293 cells
Settings: EC50 of the modulation; HEK 293 cell line expressing human recombinant mGluR5; glutamate at approximately 5% basal stimulation; peak height of Ca release fluorescence signal
Experimental: The positive modulation of mGluR5 is measured in a HEK 293 cell line expressing human recombinant mGluR5 and is detected with calcium based FLIPR assay. The cells are cultured with DMEM supplemented with 10% FCS, 2 μg/mL tetracycline, 100 μg/mL hygromycin and 500 μg/mL gneticin. The cell culture media is exchanged for tetracycline-free cell culture media 3-7 days before the assay. One day before the assay the cell culture medium is exchanged to DMEM without glutamine and phenol red and supplemented with 10% FCS, 100 μg/mL hygromycin and 500 μg/mL geneticin. On the assay day, the medium of the subconfluent cultures is removed and the cells are detached by addition of 2.5 ml EDTA(0.02%) per 175 cm2 culture flask for 1 minute. The cells are resuspend in Ringer solution (140 mM NaCl, 5 mM KCl, 2.5 mM CaCl2, 1.5 mM MgCl2, 5 mM Glucose, 10 mM Hepes; adjusted to pH 7.4 with NaOH), pooled and Ringer solution added to adjust the volume to 50 mL. The cell suspension is centrifuged for […] at 1500 U/min (425 g). The supernatant is removed and the cells washed a second time with 50 ml fresh Ringer solution and centrifuged again as before. The supernatant is again removed and the pellet resuspended in Ringer solution to 1,000,000 cells/ml (1×10^6 cells/mL). The cells are plated onto BD BioCoat Poly-D-Lysine 384 well plates (20.000 cells/well; 20 μl/well). The lid covered plates are then incubated until use at 37° C./10% CO2. For dye loading, 20 μl of Calcium-4 assay kit solution (prepared according to the manufacturer's description in Ringer solution) are added to the cells and the plates are incubated for 80 min 37° C. and then 10 min at room temperature.
Controls, Compound Dilution and Assay Execution:
Each assay plate contained wells with “high” and “low” controls:
Low controls 1% DMSO/ringer solution+basal glutamate activation (defined as 100% CTL).
High controls 10 μM CDPPB+basal glutamate activation (defined as 200% CTL).
Test compounds are dissolved and diluted in DMSO to 100-fold the desired concentrations. In a second step, the compounds are diluted in Ringer solution such that the compounds are 4-fold more concentrated than the desired final assay concentration. The final DMSO concentration was 1%.
20 μl of each compound solution are then transferred to the assay plate and the Ca2+ kinetic is measured to determine any intrinsic compound activity. After 5 min incubation in the FLIPR device, the second stimulation with 20 μl of glutamate in Ringer solution (glutamate concentration adjusted to approximately 5% basal stimulation of the maximal possible glutamate effect) is added and the kinetic Ca2+ response of the wells was measured for the modulation effect.
The peak height of the Ca release related fluorescence signal (9-66) is used for the EC50. The EC50 of the modulation is calculated over a nonlinear regression with GraphPad Prism (Table 1).

T1 sequence (P41594 21-1212): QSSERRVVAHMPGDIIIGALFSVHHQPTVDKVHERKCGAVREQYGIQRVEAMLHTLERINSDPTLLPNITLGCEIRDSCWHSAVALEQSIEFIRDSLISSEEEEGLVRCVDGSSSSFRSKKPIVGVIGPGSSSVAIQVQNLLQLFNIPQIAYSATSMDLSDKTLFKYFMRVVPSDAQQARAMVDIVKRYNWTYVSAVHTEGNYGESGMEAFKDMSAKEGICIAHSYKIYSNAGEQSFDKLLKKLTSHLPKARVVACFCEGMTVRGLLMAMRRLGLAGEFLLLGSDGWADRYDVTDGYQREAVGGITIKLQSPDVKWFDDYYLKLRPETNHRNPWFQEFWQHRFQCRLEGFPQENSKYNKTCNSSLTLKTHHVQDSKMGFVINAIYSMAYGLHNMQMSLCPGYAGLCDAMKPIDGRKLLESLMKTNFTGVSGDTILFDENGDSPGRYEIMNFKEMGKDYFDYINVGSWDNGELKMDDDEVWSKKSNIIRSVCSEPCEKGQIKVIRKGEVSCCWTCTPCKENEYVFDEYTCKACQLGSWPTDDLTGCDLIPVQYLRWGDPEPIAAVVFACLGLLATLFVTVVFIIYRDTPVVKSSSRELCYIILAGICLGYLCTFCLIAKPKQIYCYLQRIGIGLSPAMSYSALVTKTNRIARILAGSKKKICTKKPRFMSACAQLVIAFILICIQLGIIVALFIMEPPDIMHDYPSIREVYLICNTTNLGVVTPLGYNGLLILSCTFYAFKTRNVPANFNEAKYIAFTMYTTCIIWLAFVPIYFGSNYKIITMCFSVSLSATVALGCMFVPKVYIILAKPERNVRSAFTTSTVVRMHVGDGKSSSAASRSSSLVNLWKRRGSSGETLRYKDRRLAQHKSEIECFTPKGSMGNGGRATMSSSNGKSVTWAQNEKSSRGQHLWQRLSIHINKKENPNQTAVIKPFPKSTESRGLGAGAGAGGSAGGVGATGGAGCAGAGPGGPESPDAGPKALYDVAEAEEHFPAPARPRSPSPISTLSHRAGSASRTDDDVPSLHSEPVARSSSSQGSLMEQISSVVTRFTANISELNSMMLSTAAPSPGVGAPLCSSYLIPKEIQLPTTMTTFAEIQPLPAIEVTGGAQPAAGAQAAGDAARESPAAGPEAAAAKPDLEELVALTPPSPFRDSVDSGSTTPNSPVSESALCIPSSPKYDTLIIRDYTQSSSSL

EC50: 174 nM
Compound: CCn1cc(-c2ccc(F)c(C)c2)nc1CC(=O)N1CCN(c2ncccn2)CC1 [Example 7.05.01, 2-(1-Ethyl-4-(4-fluoro-3-methyl-phenyl)-1H-imidazol-2-yl)-1-(4-pyrimidin-2-yl-piperazin-1-yl)-ethanone]
